Marks after values point to notes of the source that are not given here.
How the values were obtained:
wild-type MtDXR [1] = settings: ref Liu and Murkin 17; cited from earlier work
wild-type MtDXR [2] = biological target: wild-type MtDXR (Mycobacterium tuberculosis, UniProt P9WNS1); format: binding
wild-type MtDXR [3] = settings: pH 7.6; cited from earlier work
DXR = settings: read-out: Ki values; cited from earlier work
P. falciparum = settings: cited from earlier work
M. tuberculosis = settings: cited from earlier work
[4] = system: CC(=O)[C@@H](O)[C@H](O)COP(=O)(O)O; test: purified protein, by the assay type; settings: pH 7.5; 25.0 °C

Chain of wild-type MtDXR (Mycobacterium tuberculosis, UniProt P9WNS1) (P9WNS1 1-389): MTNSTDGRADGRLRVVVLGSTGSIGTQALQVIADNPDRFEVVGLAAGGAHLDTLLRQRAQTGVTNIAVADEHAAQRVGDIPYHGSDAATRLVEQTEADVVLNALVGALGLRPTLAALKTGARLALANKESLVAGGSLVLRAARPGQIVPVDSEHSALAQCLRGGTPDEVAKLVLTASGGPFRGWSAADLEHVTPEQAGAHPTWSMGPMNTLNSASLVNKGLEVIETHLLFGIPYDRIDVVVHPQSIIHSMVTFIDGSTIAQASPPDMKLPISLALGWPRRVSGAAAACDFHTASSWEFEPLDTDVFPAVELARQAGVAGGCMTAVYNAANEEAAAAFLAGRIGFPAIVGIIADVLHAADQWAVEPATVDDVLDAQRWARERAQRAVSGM

## CC(=O)[C@@H](O)[C@H](O)COP(=O)(O)O [DXP, 1-deoxy-D-xylulose 5-phosphate]
wild-type MtDXR [1]
  Km: 115 ± 7 µM

## O=CN(O)CCCP(=O)(O)O [fosmidomycin]
wild-type MtDXR [2]
  enthalpy share of total binding energy: 50%
wild-type MtDXR [2]; pH 7.5
  ΔG°: –9.82 ± 0.08 kcal/mol
  ΔH°: –4.8 ± 0.7 kcal/mol
  –TΔS°: –5.0 ± 0.7 kcal/mol
wild-type MtDXR [3]
  Kd: 290 nM
  ΔG°: –8.34 ^e kcal/mol
  ΔH°: –6.0 ^e kcal/mol
  –TΔS°: –2.3 ^e kcal/mol
DXR
  Ki: 10 to 100 nM
P. falciparum
  treatment of malaria caused by P. falciparum: effective
M. tuberculosis
  activity against M. tuberculosis: poorly active

## (Mycobacterium tuberculosis H37Rv)
[4]
  Km: 137 ± 12 µM
  kcat: 4.2 ± 0.2 s⁻¹
  kcat/Km: 31000 ± 2000 M⁻¹ s⁻¹
